Assay [1] concerns the target T1, Luciferin 4-monooxygenase (Luciola lateralis, UniProt Q01158).
T1 sequence (Q01158 whole entry): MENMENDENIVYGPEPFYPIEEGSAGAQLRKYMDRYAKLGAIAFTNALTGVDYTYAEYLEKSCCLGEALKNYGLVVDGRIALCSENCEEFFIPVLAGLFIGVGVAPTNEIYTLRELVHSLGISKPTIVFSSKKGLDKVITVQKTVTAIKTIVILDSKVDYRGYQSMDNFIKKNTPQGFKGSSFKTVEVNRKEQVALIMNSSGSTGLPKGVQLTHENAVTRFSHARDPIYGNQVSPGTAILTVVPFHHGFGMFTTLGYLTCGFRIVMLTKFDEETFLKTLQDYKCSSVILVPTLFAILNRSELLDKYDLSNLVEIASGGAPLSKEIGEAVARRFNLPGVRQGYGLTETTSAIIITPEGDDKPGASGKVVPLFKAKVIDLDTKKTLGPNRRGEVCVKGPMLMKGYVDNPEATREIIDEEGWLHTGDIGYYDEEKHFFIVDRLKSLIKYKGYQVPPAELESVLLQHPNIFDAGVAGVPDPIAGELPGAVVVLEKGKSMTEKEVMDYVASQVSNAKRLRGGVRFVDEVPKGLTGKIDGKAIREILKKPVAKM
As to the kind of experiment: Inhibition of firefly luciferase by ATPlite assay in absence of AMPK. The arrangement: species or system Aquatica lateralis. A general note: Cellular ATP, detected with luciferase, serves as a proxy for viable cell number.

In assay [2] the target is T2, Luciferin 4-monooxygenase (Luciola lateralis) (UniProt Q01158).
T2 sequence (whole entry): T1 sequence (Q01158 whole entry)
As to the kind of experiment: Inhibition of firefly luciferase by ATPlite assay in presence of AMPK. Particulars: Aquatica lateralis.

Calls of active or inactive are those of the source. The calls are words filed in the database; no cut-off is given here.

In general, EC50 refers to the midpoint of the concentration-response curve. A higher EC50 goes with weaker potency. For the compound `CNc1ccc(-c2nc3ccccc3c(=O)[nH]2)cc1`, the EC50 in assay [1] came to 730 nM. Also, the inhibition entry in assay [2] is “Active”.

Source of the values: ChEMBL document CHEMBL1914363, “Identification of a naturally occurring quinazolin-4(3H)-one firefly luciferase inhibitor” (J Nat Prod, 2011).
